# Source: ChEMBL document CHEMBL3885881, “DrugMatrix”
# Species: Rattus norvegicus
# Experiment: DrugMatrix - Regimen: Daily Repeat
# Type: toxicity, organism-based, Sprague-Dawley
# Design: regimen Daily Repeat, gender Male, age 6-8 weeks
# Conditions: in vivo, po, route oral GAVAGE, vehicle 100 % WATER; for URIC ACID / ALANINE AMINOTRANSFERASE / ALBUMIN / ALKALINE PHOSPHATASE / ASPARTATE AMINOTRANSFERASE / BLOOD UREA NITROGEN / CARBON DIOXIDE / CHLORIDE / CHOLESTEROL / CREATINE PHOSPHOKINASE / CREATININE / GLUCOSE / LACTATE DEHYDROGENASE / LIPASE / PHOSPHORUS / POTASSIUM / SODIUM / TOTAL BILIRUBIN / TOTAL PROTEIN: tissue Plasma; for ABSOLUTE BASOPHIL / ABSOLUTE EOSINOPHIL / ABSOLUTE LYMPHOCYTE / ABSOLUTE MONOCYTE / ABSOLUTE SEGMENTED NEUTROPHIL / BASOPHIL / EOSINOPHIL / ERYTHROCYTE COUNT / HEMATOCRIT / HEMOGLOBIN / LEUKOCYTE COUNT / LYMPHOCYTE / MEAN CORPUSCULAR HEMOGLOBIN / MEAN CORPUSCULAR HEMOGLOBIN CONCENTRATION / MONOCYTE / NEUTROPHIL / NUCLEATED RED BLOOD CELLS / PLATELET COUNT: tissue Blood
# [1] = 50 mg/kg, 120 h, dose level Low, time 5 day
# [2] = 1750 mg/kg, 72 h, dose level High, time 3 day
# [3] = 1750 mg/kg, 120 h, dose level High, time 5 day
smiles,measurement,setting,value
C[C@H](CS)C(=O)N1CCC[C@H]1C(=O)O [CAPTOPRIL],URIC ACID,"50 mg/kg, 72 h, dose level Low, time 3 day",1.37 mg/dL
same,ABSOLUTE BASOPHIL,[1],0 CELLS/uL
same,ABSOLUTE EOSINOPHIL,[1],130 CELLS/uL
same,ABSOLUTE LYMPHOCYTE,[1],12459.67 CELLS/uL
same,ABSOLUTE MONOCYTE,[1],96.33 CELLS/uL
same,ABSOLUTE SEGMENTED NEUTROPHIL,[1],1180.67 CELLS/uL
same,BASOPHIL,[1],0%
same,EOSINOPHIL,[1],1%
same,ERYTHROCYTE COUNT,[1],5.51 x10E6/uL
same,HEMATOCRIT,[1],34.87%
same,HEMOGLOBIN,[1],14.1 G/DL
same,LEUKOCYTE COUNT,[1],13.87 x10E3/uL
same,LYMPHOCYTE,[1],90%
same,MEAN CORPUSCULAR HEMOGLOBIN,[1],25.63 pg
same,MEAN CORPUSCULAR HEMOGLOBIN CONCENTRATION,[1],40.43 G/DL
same,MONOCYTE,[1],0.67%
same,NEUTROPHIL,[1],8.33%
same,NUCLEATED RED BLOOD CELLS,[1],0.33 /100WBC
same,PLATELET COUNT,[1],1341.67 x10E3/uL
same,ALANINE AMINOTRANSFERASE,[1],46.33 u/L
same,ALBUMIN,[1],4.37 G/DL
same,ALKALINE PHOSPHATASE,[1],377.67 u/L
same,ASPARTATE AMINOTRANSFERASE,[1],83.33 u/L
same,BLOOD UREA NITROGEN,[1],16.67 mg/dL
same,CARBON DIOXIDE,[1],30.67 mmol/L
same,CHLORIDE,[1],100.33 MEQ/L
same,CHOLESTEROL,[1],79.67 mg/dL
same,CREATINE PHOSPHOKINASE,[1],326.33 u/L
same,CREATININE,[1],0.2 mg/dL
same,GLUCOSE,[1],140.67 mg/dL
same,LACTATE DEHYDROGENASE,[1],506 u/L
same,LIPASE,[1],12.67 u/L
same,PHOSPHORUS,[1],10.43 mg/dL
same,POTASSIUM,[1],6.71 MEQ/L
same,SODIUM,[1],141.93 MEQ/L
same,TOTAL BILIRUBIN,[1],0.2 mg/dL
same,TOTAL PROTEIN,[1],6.37 G/DL
same,URIC ACID,[1],1.4 mg/dL
same,ABSOLUTE BASOPHIL,[2],0 CELLS/uL
same,ABSOLUTE EOSINOPHIL,[2],0 CELLS/uL
same,ABSOLUTE LYMPHOCYTE,[2],14323.33 CELLS/uL
same,ABSOLUTE MONOCYTE,[2],220.67 CELLS/uL
same,ABSOLUTE SEGMENTED NEUTROPHIL,[2],1556 CELLS/uL
same,BASOPHIL,[2],0%
same,EOSINOPHIL,[2],0%
same,ERYTHROCYTE COUNT,[2],5.51 x10E6/uL
same,HEMATOCRIT,[2],34.3%
same,HEMOGLOBIN,[2],13.6 G/DL
same,LEUKOCYTE COUNT,[2],16.1 x10E3/uL
same,LYMPHOCYTE,[2],89%
same,MEAN CORPUSCULAR HEMOGLOBIN,[2],24.73 pg
same,MEAN CORPUSCULAR HEMOGLOBIN CONCENTRATION,[2],39.67 G/DL
same,MONOCYTE,[2],1.33%
same,NEUTROPHIL,[2],9.67%
same,NUCLEATED RED BLOOD CELLS,[2],0.67 /100WBC
same,PLATELET COUNT,[2],1393 x10E3/uL
same,ALANINE AMINOTRANSFERASE,[2],54.67 u/L
same,ALBUMIN,[2],4.07 G/DL
same,ALKALINE PHOSPHATASE,[2],365.33 u/L
same,ASPARTATE AMINOTRANSFERASE,[2],87 u/L
same,BLOOD UREA NITROGEN,[2],25.67 mg/dL
same,CARBON DIOXIDE,[2],24 mmol/L
same,CHLORIDE,[2],100.67 MEQ/L
same,CHOLESTEROL,[2],71.67 mg/dL
same,CREATINE PHOSPHOKINASE,[2],349.33 u/L
same,CREATININE,[2],0.16 mg/dL
same,GLUCOSE,[2],152.33 mg/dL
same,LACTATE DEHYDROGENASE,[2],356 u/L
same,LIPASE,[2],10.33 u/L
same,PHOSPHORUS,[2],11.53 mg/dL
same,SODIUM,[2],139.9 MEQ/L
same,TOTAL BILIRUBIN,[2],0.2 mg/dL
same,TOTAL PROTEIN,[2],5.73 G/DL
same,URIC ACID,[2],1.27 mg/dL
same,ABSOLUTE BASOPHIL,[3],0 CELLS/uL
same,ABSOLUTE EOSINOPHIL,[3],0 CELLS/uL
same,ABSOLUTE LYMPHOCYTE,[3],12668 CELLS/uL
same,ABSOLUTE MONOCYTE,[3],119.33 CELLS/uL
same,ABSOLUTE SEGMENTED NEUTROPHIL,[3],946 CELLS/uL
same,BASOPHIL,[3],0%
same,EOSINOPHIL,[3],0%
same,ERYTHROCYTE COUNT,[3],5.54 x10E6/uL
same,HEMATOCRIT,[3],34.7%
same,HEMOGLOBIN,[3],13.83 G/DL
same,LEUKOCYTE COUNT,[3],13.73 x10E3/uL
same,LYMPHOCYTE,[3],92.33%
same,MEAN CORPUSCULAR HEMOGLOBIN,[3],25.03 pg
same,MEAN CORPUSCULAR HEMOGLOBIN CONCENTRATION,[3],39.9 G/DL
same,MONOCYTE,[3],1%
same,NEUTROPHIL,[3],6.67%
same,NUCLEATED RED BLOOD CELLS,[3],0 /100WBC
same,PLATELET COUNT,[3],1353.67 x10E3/uL
same,ALANINE AMINOTRANSFERASE,[3],53.67 u/L
same,ALBUMIN,[3],4.13 G/DL
same,ALKALINE PHOSPHATASE,[3],415 u/L
same,ASPARTATE AMINOTRANSFERASE,[3],102 u/L
same,BLOOD UREA NITROGEN,[3],39.33 mg/dL
same,CARBON DIOXIDE,[3],24.33 mmol/L
same,CHLORIDE,[3],102.33 MEQ/L
same,CHOLESTEROL,[3],70.33 mg/dL
same,CREATINE PHOSPHOKINASE,[3],594.67 u/L
same,CREATININE,[3],0.33 mg/dL
same,GLUCOSE,[3],145.33 mg/dL
same,LACTATE DEHYDROGENASE,[3],1114.33 u/L
same,LIPASE,[3],11 u/L
same,PHOSPHORUS,[3],10.47 mg/dL
same,POTASSIUM,[3],6.84 MEQ/L
same,SODIUM,[3],141.27 MEQ/L
same,TOTAL BILIRUBIN,[3],0.23 mg/dL
same,TOTAL PROTEIN,[3],6.03 G/DL
same,URIC ACID,[3],1.87 mg/dL
